Reference: patent US8022076B2, “Substituted thieno[2,3-d]pyrimidines as potassium channel inhibitors” (Xention Limited, priority 2003, dated 2011)

Biological target: T1, human Kv1.5 (Homo sapiens, UniProt P22460)
T1 construct: expressed in transfected cells; stably transfected, blasticidin selection
Assay: Kv1.5 Rb+ efflux assay
Assay type: cell-based
Conditions: inhibition of 86Rb+ efflux through Kv1.5, cells stably transfected with human Kv1.5, 10 point concentration response curves n=2
Protocol: The pore of a potassium channel is permeable to other monovalent cations such as Rb^+ and Tl^+. Analysis of cellular efflux of potassium channel permeable ions enables potassium channel activity to be monitored directly. Cells stably transfected with cDNA for human Kv1.5 (in pEF6::VA-His-TOPO) were grown in Dulbecco's Modified Eagle media (DMEM) alpha supplemented with 10% Fetal Calf Serum (FCS), 20 μl/ml penicillin (5000 U/ml) streptomycin (5000 μg/ml), 10 μl/ml [100×] glutamine, and blasticidin (7.5 μg/ml). Cells were dispensed into 96 well cellstar TC plates and allowed to grow until a confluent monolayer was visible. On the morning of the assay run, cold media was aspirated using the TECAN plate washer, and a 50 μl media spike containing 2 μCi/ml (37 kBq/ml) ^86Rb^+ added to each well containing cells using the Shallow-Well Matrix Platemate. Plates were placed in a incubator at 37° C. for a minimum of 3 hours. Unloaded ^86Rb^+ in the “hot” media was aspirated and each well washed 4×250 μl with Earls Balanced Salt Solution (EBSS) which contained 5 mM KCl, 140 mM NaCl, 2 mM CaCl2, 1 mM MgSO4, 10 mM HEPES, and 5 mM glucose, pH 7.4, 290-300 mOsm. These cells were then pre-incubated with 50 μl of EBSS+/−test compounds for 10 minutes at room temperature. After the 10 minute incubation, 50 μl of modified EBSS which contained 145 mM KCl, 2 mM CaCl2, 1 mM MgSO4, 10 mM HEPES, 5 mM glucose, pH 7.4, 290-300 mOsm, was added, and the cells were incubated for a further 10 minutes at room temperature. The high KCl EBSS was used to depolarise cells to a membrane potential that would activate Kv1.5 channels. After the final incubation 80 μl/100 μl of the reaction from each well was transferred to equivalent wells in a Packard “Optiplate” white 96 well plate and counted in a Packard TopCount liquid scintillation counter by Cerenkov emission. Percentage inhibition ^86Rb^+ efflux through Kv1.5 was calculated by normalisation to 2.5 mM 4 amino-pyridine control block of Kv1.5. Alternatively cells were loaded with ^85Rb^+ and quantified by atomic absorption spectroscopy. IC50 determinations were derived from 10 point concentration response curves n=2 using the method described above. Data was fitted as variable slope sigmoidal fit using Graphpad Prism (V3.02) software.

T1 sequence (P22460 whole entry): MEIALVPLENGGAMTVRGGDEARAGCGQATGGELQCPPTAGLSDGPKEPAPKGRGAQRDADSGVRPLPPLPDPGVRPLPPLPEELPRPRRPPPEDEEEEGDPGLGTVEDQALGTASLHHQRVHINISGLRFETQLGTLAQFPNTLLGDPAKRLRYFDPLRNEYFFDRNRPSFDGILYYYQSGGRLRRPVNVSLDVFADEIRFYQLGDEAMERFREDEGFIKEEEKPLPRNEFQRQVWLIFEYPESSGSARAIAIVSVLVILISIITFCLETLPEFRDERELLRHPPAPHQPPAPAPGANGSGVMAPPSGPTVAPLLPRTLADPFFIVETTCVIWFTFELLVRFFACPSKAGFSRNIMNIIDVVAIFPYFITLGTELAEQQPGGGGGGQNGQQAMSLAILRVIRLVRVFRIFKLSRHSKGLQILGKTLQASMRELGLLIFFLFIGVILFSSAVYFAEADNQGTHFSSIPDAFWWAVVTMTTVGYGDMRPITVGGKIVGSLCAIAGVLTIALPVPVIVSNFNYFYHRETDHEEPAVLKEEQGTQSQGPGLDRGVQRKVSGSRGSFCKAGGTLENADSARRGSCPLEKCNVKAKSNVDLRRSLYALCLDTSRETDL

| IC50 [µM] | Molecule |
| --- | --- |
| 0.37 | CC(Nc1ncnc2scc(-c3ccccc3)c12)c1ccccn1 (centres unmarked) [Example 149, (5-Phenyl-thieno[2,3-d]pyrimidin-4-yl)-(1-pyridin-2-yl-ethyl)-amine] |
| 2.18 | Nc1nc(NCc2ccccn2)c2c(-c3ccccc3)csc2n1 [Example 192, 5-Phenyl-N-4-pyridin-2-ylmethyl-thieno[2,3-d]pyrimidine-2,4-diamine] |
| 0.28 | COCCNc1nc(NCc2ccccn2)c2c(-c3ccccc3)csc2n1 [Example 189, N^2-(2-Methoxyethyl)-5-phenyl-N^4-(pyridin-2-ylmethyl)thieno[2,3-d]pyrimidine-2,4-diamine] |
| 0.22 | COc1ccc(-c2csc3ncnc(NCc4ccccn4)c23)cc1 [Example 138, [5-(4-Methoxy-phenyl)-thieno[2,3-d]pyrimidin-4-yl]-pyridin-2-ylmethyl-amine] |
| 0.57 | CN(C)c1nc(NCc2ccccn2)c2c(-c3ccccc3)csc2n1 [Example 198, N^2,N^2-Dimethyl-5-phenyl-N^4-pyridin-2-ylmethyl-thieno[2,3-d]pyrimidine-2,4-diamine] |

Test system: not given
Assay: not given
Conditions: not given

| melting point [°C] | Molecule |
| --- | --- |
| 110 to 112 | Cc1nc(NCc2ccccn2)c2c(-c3ccccc3)csc2n1 [Example 101, 2-Methyl-N-(2-pyridyl)methyl-5-phenylthieno[2,3-d]pyrimidin-4-ylamine] |
| 90 to 92 | OCCc1nc(NCc2ccccn2)c2c(-c3ccccc3)csc2n1 [Example 250, 2-{5-Phenyl-4-[(pyridin-2-ylmethyl)amino]thieno[2,3-d]pyrimidin-2-yl}ethanol] |
| 97 to 99 | ClCc1nc(NCc2ccccn2)c2c(-c3ccccc3)csc2n1 [Example 301, (2-Chloromethyl-5-phenylthieno[2,3-d]pyrimidin-4-yl)pyridin-2-ylmethylamine] |

Further lines, the molecule ahead of its results:

| Molecule | melting point [°C] |
| --- | --- |
| c1ccc(-c2csc3ncnc(NCc4ccco4)c23)cc1 [Example 83, Furan-2-ylmethyl-(5-phenyl-thieno[2,3-d]pyrimidin-4-yl)-amine] | 77 to 79 |
| c1ccc(-c2csc3nc(NCC4CC4)nc(NCc4ccccn4)c23)cc1 [Example 188, N^2-Cyclopropylmethyl-5-phenyl-N^4-pyridin-2-ylmethyl-thieno[2,3-d]pyrimidine-2,4-diamine] | 109 to 111 |
| Cn1ccc2cc(-c3csc4ncnc(NCc5ccccn5)c34)ccc21 [Example 312, [5-(1-Methyl-1H-indol-5-yl)thieno[2,3-d]pyrimidin-4-yl]pyridin-2-ylmethylamine] | 184 to 185 |

Biological target: hKv1.5 (Homo sapiens, UniProt P22460)
Sequence (P22460 whole entry): as above
Assay: Kv1.5 Autopatch electrophysiology (whole cell patch-clamp)
Assay type: cell-based
Conditions: hKv1.5 current, compound at 1 μM
Protocol: The external bathing solution contained (in mM): 150 NaCl, 10 KCl, […], 3 MgCl2, 1 CaCl2, 10 HEPES, pH 7.4. Patch pipettes were filled with an electrode solution of composition (in mM): 160 KCl, 0.5 MgCl2, 10 HEPES, 1 EGTA, pH 7.4 with KOH.
Compounds were dissolved in DMSO (100%) and made up in the external bather at a concentration of 1 μM. All experiments were conducted at room temperature (22-24° C.).
A cell suspension (10 ml), with a density of 100,000 cells/ml, was aliquoted into a 15 ml centrifuge tube and transferred to an incubator (37° C., 5% CO2) for approximately one hour before use. Following 60 min incubation, a tube was taken and centrifuged at 1000 rpm for 4 mins at room temperature. 9.5 ml supernatant was thence discarded, leaving a cell pellet at the bottom of the tube. The pellet was then resuspended using 100 μl of cold (4° C.), filtered (0.22 μm), 0.2% BSA/bather solution (0.02 g BSA/10 ml bather). The bottom of the tube was manually agitated gently until the solution became cloudy with cells. The 100 μl cell resuspension solution was then stored on the bench at 4° C. (using a Peltier-based temperature control device) until used.
A length of capillary glass (1B150E-4, WPI) was dipped into the cell suspension solution, such that ˜3 cm column of fluid was taken up by capillary action. A Ag/AgCl wire was dropped into the non-dipped end of the capillary also. The outside of the solution-filled end of the capillary was then dried and the capillary was loaded into the AutoPatch™
Borosilicate glass patch pipettes (from 1.5 mm OD, thin-walled filamented, GC150-TF capillary glass, Harvard) were pulled using a DMZ pipette puller (Zeitz Instruments), and were back-filled using the internal pipette solution, being careful that no bubbles remain at the tip or in the body of the pipette. […]
Electrophysiology voltage-step protocols and analysis of data was performed as follows. […] Currents were analysed using Pulsefit software (v8.54, HEKA, Germany), with the total charge measured during the whole of the voltage step. […]

| inhibition at 1 µM [%] | Molecule | % Inhibition at 1 μM [%] |
| --- | --- | --- |
| – | COCc1nc(NCc2ccccn2)c2c(-c3ccccc3)csc2n1 [Example 305, (2-Methoxymethyl-5-phenylthien[2,3-d]primidin-4-yl)pyridin-2-ylmethylamine] | 94.0 |
| – | 3-{5-Phenyl-4-[(pyridin-2-ylmethyl)-amino]-thieno[2,3-d]pyrimidin-2-ylamino)}-propane-1,2-diol [Example 214] | 87.0 |
| 73.4 | c1ccc(-c2csc3ncnc(NCC4CCCCC4)c23)cc1 [Example 89, Cyclohexylmethyl-(5-phenyl-thieno[2,3-d]pyrimidin-4-yl)-amine] | – |
